Experimental data as given in ChEMBL document CHEMBL1137864, “End-capping of the modified melanocortin tetrapeptide (p-Cl)Phe-D-Phe-Arg-Trp-NH2 as a route to hMC4R agonists” (Bioorg Med Chem Lett, 2004).

Columns and labels:
[1] = target: Melanocortin receptor 3 (Homo sapiens, UniProt P41968); experiment: Agonistic activity against human Melanocortin 3 receptor; format: functional
[2] = target: Melanocortin receptor (M3 and M4) (Homo sapiens) (UniProt P32245+P41968); experiment: Ratio of EC50 of Melanocortin 4 receptor to that of Melanocortin 3 receptor; format: protein assay
[3] = target: Melanocortin receptor (M1 and M4) (Homo sapiens) (UniProt P32245+Q01726); experiment: Ratio of EC50 of Melanocortin 4 receptor to that of Melanocortin 1 receptor; format: protein assay
[4] = target: Melanocortin receptor 4 (Homo sapiens, UniProt P32245); experiment: Agonistic activity against human Melanocortin 4 receptor; format: functional
[5] = target: Melanocyte-stimulating hormone receptor (Homo sapiens, UniProt Q01726); experiment: Agonistic activity against human Melanocortin 1 receptor; format: functional
Sequence of Melanocyte-stimulating hormone receptor (Q01726 whole entry): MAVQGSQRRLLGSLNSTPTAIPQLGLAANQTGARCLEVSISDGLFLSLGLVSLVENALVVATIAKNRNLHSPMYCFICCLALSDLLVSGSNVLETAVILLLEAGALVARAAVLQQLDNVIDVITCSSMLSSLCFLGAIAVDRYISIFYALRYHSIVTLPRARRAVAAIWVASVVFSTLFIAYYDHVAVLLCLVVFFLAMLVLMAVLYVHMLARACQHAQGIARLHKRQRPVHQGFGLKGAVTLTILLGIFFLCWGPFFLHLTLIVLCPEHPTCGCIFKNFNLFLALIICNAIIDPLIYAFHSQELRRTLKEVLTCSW

Sequence of Melanocortin receptor 4 (P32245 whole entry): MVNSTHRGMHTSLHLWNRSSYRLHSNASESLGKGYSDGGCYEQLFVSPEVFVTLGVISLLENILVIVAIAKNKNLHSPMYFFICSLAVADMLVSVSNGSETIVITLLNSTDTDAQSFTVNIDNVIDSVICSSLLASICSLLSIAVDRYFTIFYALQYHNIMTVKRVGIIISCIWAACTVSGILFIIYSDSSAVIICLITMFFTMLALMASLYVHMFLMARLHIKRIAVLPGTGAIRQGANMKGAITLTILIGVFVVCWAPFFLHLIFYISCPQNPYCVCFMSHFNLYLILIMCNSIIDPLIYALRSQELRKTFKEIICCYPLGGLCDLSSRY
Sequence of Melanocortin receptor 3 (P41968 whole entry): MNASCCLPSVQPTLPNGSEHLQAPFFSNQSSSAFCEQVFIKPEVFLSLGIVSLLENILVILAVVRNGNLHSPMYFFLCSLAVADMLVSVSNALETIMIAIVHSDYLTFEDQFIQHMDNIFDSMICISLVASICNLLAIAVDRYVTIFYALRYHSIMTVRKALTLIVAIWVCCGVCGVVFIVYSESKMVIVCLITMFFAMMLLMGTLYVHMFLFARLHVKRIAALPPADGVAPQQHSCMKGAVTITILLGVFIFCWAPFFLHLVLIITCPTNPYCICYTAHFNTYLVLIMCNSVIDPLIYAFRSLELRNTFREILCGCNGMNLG

Row | EC50 [1] | Ratio [2] | Ratio [3] | EC50 [4] | EC50 [5] | SMILES
1 | 86.5 nM | 10 | 100 | 8.5 nM | 848 nM | CNC(=O)N[C@@H](Cc1ccc(Cl)cc1)C(=O)NC(Cc1ccccc1)C(=O)N[C@@H](CCCN=C(N)N)C(=O)N[C@@H](Cc1c[nH]c2ccccc12)C(N)=O (stereo in doubt)
2 | 556 nM | 4 | 5 | 135 nM | 700 nM | N=C(N)NCCC[C@H](NC(=O)C(Cc1ccccc1)NC(=O)[C@H](Cc1ccc(Cl)cc1)NC(=O)c1ccccc1)C(=O)N[C@@H](Cc1c[nH]c2ccccc12)C(N)=O (stereo in doubt)
3 | 553 nM | 6 | 10 | 88.5 nM | 867 nM | CC(=O)N[C@@H](Cc1ccc(Cl)cc1)C(=O)NC(Cc1ccccc1)C(=O)N[C@@H](CCCN=C(N)N)C(=O)N[C@@H](Cc1c[nH]c2ccccc12)C(N)=O (stereo in doubt)
4 | 2360 nM | 15 | 12 | 159 nM | 1980 nM | CCC(=O)N[C@@H](Cc1ccc(Cl)cc1)C(=O)NC(Cc1ccccc1)C(=O)N[C@@H](CCCN=C(N)N)C(=O)N[C@@H](Cc1c[nH]c2ccccc12)C(N)=O (stereo in doubt)
5 | 170 nM | 0.7 | 0.1 | 59.5 nM | 13 nM | CC(=O)N[C@@H](Cc1c[nH]cn1)C(=O)NC(Cc1ccccc1)C(=O)NC(Cc1ccccc1)C(=O)N[C@@H](CCCN=C(N)N)C(=O)N[C@@H](Cc1c[nH]c2ccccc12)C(N)=O (stereo in doubt)
6 | 992 nM | 33 | 18 | 30 nM | 541 nM | N=C(N)NCCC[C@H](NC(=O)C(Cc1ccccc1)NC(=O)[C@H](Cc1ccc(Cl)cc1)NC(=O)c1ccncc1)C(=O)N[C@@H](Cc1c[nH]c2ccccc12)C(N)=O (stereo in doubt)
7 | 45 nM | 4 | 42 | 12 nM | 505 nM | C=CCNC(=O)N[C@@H](Cc1ccc(Cl)cc1)C(=O)NC(Cc1ccccc1)C(=O)N[C@@H](CCCNC(=N)N)C(=O)N[C@@H](Cc1c[nH]c2ccccc12)C(N)=O (stereo in doubt)
8 | 170 nM | 1 | 4 | 121 nM | 442 nM | N=C(N)NCCC[C@H](NC(=O)C(Cc1ccccc1)NC(=O)[C@H](Cc1ccc(Cl)cc1)NC(=O)CCc1ccccc1)C(=O)N[C@@H](Cc1c[nH]c2ccccc12)C(N)=O (stereo in doubt)
9 | 3080 nM | 88 | 6 | 35 nM | 211 nM | CCOC(=O)N[C@@H](Cc1ccc(Cl)cc1)C(=O)NC(Cc1ccccc1)C(=O)N[C@@H](CCCN=C(N)N)C(=O)N[C@@H](Cc1c[nH]c2ccccc12)C(N)=O (stereo in doubt)
10 | 3040 nM | 290 | 54 | 10.5 nM | 567 nM | N#CCC(=O)N[C@@H](Cc1ccc(Cl)cc1)C(=O)NC(Cc1ccccc1)C(=O)N[C@@H](CCCNC(=N)N)C(=O)N[C@@H](Cc1c[nH]c2ccccc12)C(N)=O (stereo in doubt)
11 | 1010 nM | 70 | 41 | 14.5 nM | 597 nM | N=C(N)NCCC[C@H](NC(=O)C(Cc1ccccc1)NC(=O)[C@H](Cc1ccc(Cl)cc1)NC(=O)CC(N)=O)C(=O)N[C@@H](Cc1c[nH]c2ccccc12)C(N)=O (stereo in doubt)
12 | 886 nM | – | 8 | 150 nM | 1210 nM | N=C(N)NCCC[C@H](NC(=O)C(Cc1ccccc1)NC(=O)[C@H](Cc1ccc(Cl)cc1)NC(=O)CC(F)(F)F)C(=O)N[C@@H](Cc1c[nH]c2ccccc12)C(N)=O (stereo in doubt)
13 | 43 nM | 2 | 35 | 20 nM | 699 nM | N=C(N)NCCC[C@H](NC(=O)C(Cc1ccccc1)NC(=O)[C@H](Cc1ccc(Cl)cc1)NC(=O)Cc1ccccc1)C(=O)N[C@@H](Cc1c[nH]c2ccccc12)C(N)=O (stereo in doubt)
14 | 3 nM | – | 0.01 | 5 nM | 0.05 nM | N=C(N)NCCC[C@H](NC(=O)C(Cc1ccccc1)NC(=O)C(Cc1ccccc1)NC(=O)[C@H](Cc1c[nH]cn1)NC(=O)CCCC(=O)c1ccccc1)C(=O)N[C@@H](Cc1c[nH]c2ccccc12)C(N)=O (stereo in doubt)
15 | 497 nM | 4 | 5 | 123 nM | 565 nM | CC(C)C(=O)N[C@@H](Cc1ccc(Cl)cc1)C(=O)NC(Cc1ccccc1)C(=O)N[C@@H](CCCN=C(N)N)C(=O)N[C@@H](Cc1c[nH]c2ccccc12)C(N)=O (stereo in doubt)
16 | 473 nM | 12 | 14 | 38.5 nM | 536 nM | N=C(N)NCCC[C@H](NC(=O)C(Cc1ccccc1)NC(=O)[C@H](Cc1ccc(Cl)cc1)NC(=O)C1CC1)C(=O)N[C@@H](Cc1c[nH]c2ccccc12)C(N)=O (stereo in doubt)

Row | EC50 [1] | Ratio [2] | Ratio [3] | EC50 [4] | EC50 [5] | SMILES
17 | 313 nM | 15 | 28 | 21 nM | 577 nM | N=C(N)NCCC[C@H](NC(=O)C(Cc1ccccc1)NC(=O)[C@H](Cc1ccc(Cl)cc1)NC(=O)c1cccnc1)C(=O)N[C@@H](Cc1c[nH]c2ccccc12)C(N)=O (stereo in doubt)
18 | 175 nM | 4 | 51 | 42 nM | 2160 nM | CN(C)C(=O)N[C@@H](Cc1ccc(Cl)cc1)C(=O)NC(Cc1ccccc1)C(=O)N[C@@H](CCCN=C(N)N)C(=O)N[C@@H](Cc1c[nH]c2ccccc12)C(N)=O (stereo in doubt)
19 | 207 nM | 3 | 1 | 82 nM | 113 nM | N=C(N)NCCC[C@H](NC(=O)C(Cc1ccccc1)NC(=O)[C@H](Cc1ccc(Cl)cc1)NC(=O)CCCc1ccccc1)C(=O)N[C@@H](Cc1c[nH]c2ccccc12)C(N)=O (stereo in doubt)
20 | 644 nM | 34 | 48 | 18.7 nM | 892 nM | N=C(N)NCCC[C@H](NC(=O)C(Cc1ccccc1)NC(=O)[C@H](Cc1ccc(Cl)cc1)NC(=O)c1cccs1)C(=O)N[C@@H](Cc1c[nH]c2ccccc12)C(N)=O (stereo in doubt)
21 | 674 nM | 25 | 25 | 27 nM | 671 nM | N=C(N)NCCC[C@H](NC(=O)C(Cc1ccccc1)NC(=O)[C@H](Cc1ccc(Cl)cc1)NC(=O)c1ccsc1)C(=O)N[C@@H](Cc1c[nH]c2ccccc12)C(N)=O (stereo in doubt)
22 | 203 nM | 4 | 2 | 50 nM | 114 nM | N=C(N)NCCC[C@H](NC(=O)C(Cc1ccccc1)NC(=O)[C@H](Cc1ccc(Cl)cc1)NC(=O)CCC(=O)c1ccc(F)cc1)C(=O)N[C@@H](Cc1c[nH]c2ccccc12)C(N)=O (stereo in doubt)
23 | 827 nM | 8 | 8 | 106 nM | 803 nM | CCCC(=O)N[C@@H](Cc1ccc(Cl)cc1)C(=O)NC(Cc1ccccc1)C(=O)N[C@@H](CCCN=C(N)N)C(=O)N[C@@H](Cc1c[nH]c2ccccc12)C(N)=O (stereo in doubt)
24 | 452 nM | 14 | 30 | 31.3 nM | 947 nM | N=C(N)NCCC[C@H](NC(=O)C(Cc1ccccc1)NC(=O)[C@H](Cc1ccc(Cl)cc1)NC(=O)c1ccccn1)C(=O)N[C@@H](Cc1c[nH]c2ccccc12)C(N)=O (stereo in doubt)
25 | 41 nM | 0.7 | 0.4 | 58 nM | 23 nM | N=C(N)NCCC[C@H](NC(=O)C(Cc1ccccc1)NC(=O)[C@H](Cc1ccc(Cl)cc1)NC(=O)CCCC(=O)c1ccccc1)C(=O)N[C@@H](Cc1c[nH]c2ccccc12)C(N)=O (stereo in doubt)
26 | 34.5 nM | 1 | 3 | 45 nM | 144 nM | N=C(N)NCCC[C@H](NC(=O)C(Cc1ccccc1)NC(=O)[C@H](Cc1ccc(Cl)cc1)NC(=O)CCCCc1ccccc1)C(=O)N[C@@H](Cc1c[nH]c2ccccc12)C(N)=O (stereo in doubt)
27 | 1340 nM | 8 | 3 | 168 nM | 555 nM | N=C(N)NCCC[C@H](NC(=O)C(Cc1ccccc1)NC(=O)[C@H](Cc1ccc(Cl)cc1)NC(=O)c1c(F)c(F)c(F)c(F)c1F)C(=O)N[C@@H](Cc1c[nH]c2ccccc12)C(N)=O (stereo in doubt)
28 | 1450 nM | 13 | 4 | 114 nM | 499 nM | N=C(N)NCCC[C@H](NC(=O)C(Cc1ccccc1)NC(=O)[C@H](Cc1ccc(Cl)cc1)NC(=O)CO)C(=O)N[C@@H](Cc1c[nH]c2ccccc12)C(N)=O (stereo in doubt)
29 | 757 nM | 54 | 43 | 14.1 nM | 600 nM | N=C(N)NCCC[C@H](NC(=O)C(Cc1ccccc1)NC(=O)[C@H](Cc1ccc(Cl)cc1)NC(=O)CNC=O)C(=O)N[C@@H](Cc1c[nH]c2ccccc12)C(N)=O (stereo in doubt)
30 | 164 nM | 5 | 11 | 31.3 nM | 349 nM | N=C(N)NCCC[C@H](NC(=O)C(Cc1ccccc1)NC(=O)[C@H](Cc1ccc(Cl)cc1)NC(=O)C(N)=O)C(=O)N[C@@H](Cc1c[nH]c2ccccc12)C(N)=O (stereo in doubt)
31 | 460 nM | 3 | 3 | 155 nM | 441 nM | CCCCC(=O)N[C@@H](Cc1ccc(Cl)cc1)C(=O)NC(Cc1ccccc1)C(=O)N[C@@H](CCCN=C(N)N)C(=O)N[C@@H](Cc1c[nH]c2ccccc12)C(N)=O (stereo in doubt)
